Measurements published in the NIST ThermoML archive (doi:10.1016/j.jct.2009.09.007).
± gives the expanded uncertainty stated by the source.

CCCCn1cc[n+](C)c1.F[B-](F)(F)F [1-butyl-3-methylimidazolium tetrafluoroborate]
Conditions	surface tension liquid-gas [mN/m]
284.17 K, Wilhelmy plate method	45.29 ± 0.07
284.25 K, Ring tensiometer	45.44 ± 0.61
288.28 K, Wilhelmy plate method	44.98 ± 0.13
288.35 K, Ring tensiometer	45.15 ± 0.6
293.32 K, Wilhelmy plate method	44.56 ± 0.11
293.48 K, Ring tensiometer	44.57 ± 0.6
298.48 K, Wilhelmy plate method	44.26 ± 0.1
298.5 K, Ring tensiometer	44.41 ± 0.59
303.41 K, Wilhelmy plate method	43.84 ± 0.1
303.51 K, Ring tensiometer	44.05 ± 0.59
308.38 K, Wilhelmy plate method	43.68 ± 0.15
308.42 K, Ring tensiometer	43.63 ± 0.59
313.73 K, Ring tensiometer	43.21 ± 0.58
313.79 K, Wilhelmy plate method	43.21 ± 0.2
318.15 K, Wilhelmy plate method	43 ± 0.15
318.19 K, Ring tensiometer	43.19 ± 0.58
323.01 K, Ring tensiometer	42.84 ± 0.58
323.03 K, Wilhelmy plate method	42.58 ± 0.33
327.8 K, Wilhelmy plate method	42.46 ± 0.1
327.9 K, Ring tensiometer	42.62 ± 0.57
333.11 K, Wilhelmy plate method	42.15 ± 0.27
333.12 K, Ring tensiometer	42.07 ± 0.57
337.64 K, Wilhelmy plate method	41.96 ± 0.1
337.65 K, Ring tensiometer	41.78 ± 0.56
342.32 K, Ring tensiometer	41.71 ± 0.56
342.4 K, Wilhelmy plate method	41.56 ± 0.34
348.62 K, Ring tensiometer	41.16 ± 0.56
348.74 K, Wilhelmy plate method	41.3 ± 0.19
351.23 K, Wilhelmy plate method	40.89 ± 0.18
351.44 K, Ring tensiometer	40.85 ± 0.56

CCCCCC[n+]1ccn(C)c1.O=S(=O)([N-]S(=O)(=O)C(F)(F)F)C(F)(F)F
Wilhelmy plate method
Conditions	surface tension liquid-gas [mN/m]
283.17 K	32.34 ± 0.09
287.86 K	32.07 ± 0.16
293.15 K	31.81 ± 0.06
298.26 K	31.59 ± 0.07
303.16 K	31.34 ± 0.07
308.99 K	30.99 ± 0.11
314.39 K	30.71 ± 0.06
318.21 K	30.48 ± 0.07
323.09 K	30.26 ± 0.09
327.93 K	30 ± 0.09
333.53 K	29.8 ± 0.13
337.7 K	29.45 ± 0.11
342.32 K	29.28 ± 0.18
347.3 K	29.06 ± 0.13
351.11 K	28.91 ± 0.32

CCn1cc[n+](C)c1.O=S(=O)([N-]S(=O)(=O)C(F)(F)F)C(F)(F)F
Conditions	surface tension liquid-gas [mN/m]
283.16 K, Wilhelmy plate method	36.78 ± 0.07
283.2 K, Ring tensiometer	37.07 ± 0.51
287.3 K, Wilhelmy plate method	36.58 ± 0.07
292.6 K, Wilhelmy plate method	36.35 ± 0.06
297.89 K, Wilhelmy plate method	36.13 ± 0.06
297.95 K, Ring tensiometer	36.12 ± 0.64
302.66 K, Wilhelmy plate method	35.88 ± 0.06
308.82 K, Wilhelmy plate method	35.61 ± 0.06
313.3 K, Wilhelmy plate method	35.36 ± 0.04
317.77 K, Wilhelmy plate method	35.14 ± 0.07
323.16 K, Ring tensiometer	34.81 ± 0.48
323.19 K, Wilhelmy plate method	34.84 ± 0.04
327.91 K, Wilhelmy plate method	34.66 ± 0.04
327.97 K, Ring tensiometer	34.73 ± 0.48
333.82 K, Wilhelmy plate method	34.29 ± 0.18
333.86 K, Ring tensiometer	34.1 ± 0.47
337.84 K, Wilhelmy plate method	34.06 ± 0.13
337.88 K, Ring tensiometer	34.09 ± 0.47
343.6 K, Wilhelmy plate method	33.79 ± 0.23
346.9 K, Ring tensiometer	33.74 ± 0.47
346.93 K, Wilhelmy plate method	33.66 ± 0.16
351.54 K, Wilhelmy plate method	33.42 ± 0.18
351.67 K, Ring tensiometer	33.2 ± 0.46

CCCC[n+]1ccn(C)c1.O=S(=O)([N-]S(=O)(=O)C(F)(F)F)C(F)(F)F
Conditions	surface tension liquid-gas [mN/m]
284.15 K, Wilhelmy plate method	33.46 ± 0.11
284.19 K, Ring tensiometer	33.48 ± 0.47
287.81 K, Wilhelmy plate method	33.27 ± 0.11
294.2 K, Wilhelmy plate method	33.02 ± 0.06
298.35 K, Wilhelmy plate method	32.85 ± 0.06
298.41 K, Ring tensiometer	33.04 ± 0.46
301.96 K, Wilhelmy plate method	32.66 ± 0.07
306.81 K, Wilhelmy plate method	32.44 ± 0.07
310.81 K, Wilhelmy plate method	32.26 ± 0.07
317.93 K, Ring tensiometer	31.97 ± 0.45
317.94 K, Wilhelmy plate method	31.97 ± 0.06
322.99 K, Wilhelmy plate method	31.74 ± 0.04
327.92 K, Wilhelmy plate method	31.58 ± 0.07
332.97 K, Wilhelmy plate method	31.3 ± 0.07
337.12 K, Wilhelmy plate method	31.17 ± 0.22
343.28 K, Wilhelmy plate method	30.91 ± 0.23
347.82 K, Wilhelmy plate method	30.76 ± 0.15
348.05 K, Ring tensiometer	30.41 ± 0.43
351.56 K, Wilhelmy plate method	30.53 ± 0.13
